Data reported in patent publication US20100152434A1, “Protein Kinase-binding Nucleosides and Associated Methods” (priority 2007, published 2010).
Read-outs that look alike come from different tables or passages of the source.

Assays:
SF-539 [1] = tested on: SF-539
NCI-H322M [2] = conditions: NCI-H322M
NCI-H322M [3] = assay: cells; conditions: Homo sapiens, NCI-H322M, 48 h
KM12 = assay: cells; conditions: Homo sapiens, KM12, 48 h
HOP-92 = assay: cells; conditions: Homo sapiens, HOP-92, 48 h
SK-MEL-28 = assay: cells; conditions: Homo sapiens, SK-MEL-28, 48 h
HCT-116 = assay: cells; conditions: Homo sapiens, HCT-116, 48 h
MDA-MB-435 = assay: cells; conditions: Homo sapiens, MDA-MB-435, 48 h
OVCAR-3 = assay: cells; conditions: Homo sapiens, OVCAR-3, 48 h
RPMI-8226 = assay: cells; conditions: Homo sapiens, RPMI-8226, 48 h
ACHN [4] = tested on: ACHN
HL-60(TB) = assay: cells; conditions: Homo sapiens, HL-60, 48 h
HS 578T = assay: cells; conditions: Homo sapiens, 48 h
SK-MEL-5 = assay: cells; conditions: Homo sapiens, SK-MEL-5, 48 h
ACHN [5] = assay: cells; conditions: Homo sapiens, 48 h
SF-539 [6] = assay: cells; conditions: Homo sapiens, SF-539, 48 h
NCI/ADR-RES = conditions: NCI/ADR-RES
HCC-2998 = conditions: HCC-2998
HT29 = assay: cells; conditions: Homo sapiens, HT-29, 48 h
A549/ATCC = assay: cells; conditions: Homo sapiens, A549, 48 h
[7] = Log10 Concentration −4.0, Molar
[8] = Log10 Concentration −5.0, Molar
[9] = Log10 Concentration −6.0, Molar
[10] = Log10 Concentration −7.0, Molar
[11] = Log10 Concentration −8.0, Molar

In the case of `CCOC(=O)C[C@@H]1C(O[Si](C)(C)C(C)(C)C)[C@H](n2cnc3c(NC(=O)Nc4ccccc4)ncnc32)O[C@@H]1CNC(=O)NC` (stereo partly drawn) [Compound 10], the TGI (SF-539 [1]; 48 h) is reported as >1.00E−4 Molar, the “Percent Growth” value (SF-539 [1]; [7]) is reported as 17% and the “Percent Growth” value (SF-539 [1]; [8]) is reported as 29%. The “Percent Growth” value (SF-539 [1]; [9]) was 103%, the “Percent Growth” value (SF-539 [1]; [10]) was 91% and the “Percent Growth” value (SF-539 [1]; [11]) was 97%. The TGI (NCI-H322M [2]; 48 h) was >1.00E−4 Molar, the “Percent Growth” value (NCI-H322M [2]; [7]) was 72% and the “Percent Growth” value (NCI-H322M [2]; [8]) was 89%. For the same compound, the “Percent Growth” value (NCI-H322M [2]; [9]) was 95%, the “Percent Growth” value (NCI-H322M [2]; [10]) was 90% and the “Percent Growth” value (NCI-H322M [2]; [11]) was 105%. For the same compound, the GI50 (NCI-H322M [3]) was > 100 µM, the CC50 (NCI-H322M [3]; read-out: LC50) was > 100 µM and the GI50 (KM12) was 3.95 µM. The CC50 (KM12; read-out: LC50) was > 100 µM, the TGI (DU-145; 48 h) was 1.94E−5 Molar and the “Percent Growth” value (DU-145; [7]) was −59%. For the same compound, the “Percent Growth” value (DU-145; [8]) was 24%, the “Percent Growth” value (DU-145; [9]) was 110% and the “Percent Growth” value (DU-145; [10]) was 123%. The “Percent Growth” value (DU-145; [11]) was 110%, the GI50 (HOP-92) was < 0.01 µM and the CC50 (HOP-92; read-out: LC50) was 41.2 µM. It also gave a GI50 (SK-MEL-28) of 6.85 µM, a CC50 (SK-MEL-28; read-out: LC50) of 48.7 µM and a GI50 (HCT-116) of 3.2 µM. The CC50 (HCT-116; read-out: LC50) was 45.6 µM, the TGI (COLO 205; 48 h) was >1.00E−4 Molar and the “Percent Growth” value (COLO 205; [7]) was 3%. The “Percent Growth” value (COLO 205; [8]) was 20%, the “Percent Growth” value (COLO 205; [9]) was 93% and the “Percent Growth” value (COLO 205; [10]) was 97%. For the same compound, the “Percent Growth” value (COLO 205; [11]) was 102%, the TGI (SR; 48 h) was 7.07E−6 Molar and the “Percent Growth” value (SR; [7]) was −34%. The “Percent Growth” value (SR; [8]) was −15%, the “Percent Growth” value (SR; [9]) was 85% and the “Percent Growth” value (SR; [10]) was 70%. The “Percent Growth” value (SR; [11]) was 82%, the GI50 (MDA-MB-435) was 6.21 µM and the CC50 (MDA-MB-435; read-out: LC50) was > 100 µM. The GI50 (OVCAR-3) was 4.59 µM, the CC50 (OVCAR-3; read-out: LC50) was 91.3 µM and the GI50 (RPMI-8226) was 1.09 µM. For the same compound, the CC50 (RPMI-8226; read-out: LC50) was 59 µM, the TGI (PC-3; 48 h) was 4.85E−6 Molar and the “Percent Growth” value (PC-3; [7]) was −77%. For the same compound, the “Percent Growth” value (PC-3; [8]) was −47%, the “Percent Growth” value (PC-3; [9]) was 103% and the “Percent Growth” value (PC-3; [10]) was 126%. For the same compound, the “Percent Growth” value (PC-3; [11]) was 121%, the TGI (ACHN [4]; 48 h) was >1.00E−4 Molar and the “Percent Growth” value (ACHN [4]; [7]) was 35%. For the same compound, the “Percent Growth” value (ACHN [4]; [8]) was 47%, the “Percent Growth” value (ACHN [4]; [9]) was 96% and the “Percent Growth” value (ACHN [4]; [10]) was 97%. For the same compound, the “Percent Growth” value (ACHN [4]; [11]) was 107%, the GI50 (HL-60(TB)) was 3.01 µM and the CC50 (HL-60(TB); read-out: LC50) was > 100 µM. For the same compound, the TGI (CCRF-CEM; 48 h) was 8.86E−5 Molar, the “Percent Growth” value (CCRF-CEM; [7]) was −2% and the “Percent Growth” value (CCRF-CEM; [8]) was 41%. For the same compound, the “Percent Growth” value (CCRF-CEM; [9]) was 92%, the “Percent Growth” value (CCRF-CEM; [10]) was 100% and the “Percent Growth” value (CCRF-CEM; [11]) was 96%. For the same compound, the GI50 (HS 578T) was 3.6 µM, the CC50 (HS 578T; read-out: LC50) was > 100 µM and the GI50 (SK-MEL-5) was 4.34 µM. For the same compound, the CC50 (SK-MEL-5; read-out: LC50) was > 100 µM, the GI50 (ACHN [5]) was 8.55 µM and the CC50 (ACHN [5]; read-out: LC50) was > 100 µM. The GI50 (SF-539 [6]) was 5.19 µM, the CC50 (SF-539 [6]; read-out: LC50) was > 100 µM and the TGI (NCI/ADR-RES; 48 h) was >1.00E−4 Molar. The “Percent Growth” value (NCI/ADR-RES; [7]) was 59%, the “Percent Growth” value (NCI/ADR-RES; [8]) was 80% and the “Percent Growth” value (NCI/ADR-RES; [9]) was 104%. The “Percent Growth” value (NCI/ADR-RES; [10]) was 107%, the “Percent Growth” value (NCI/ADR-RES; [11]) was 105% and the TGI (HCC-2998; 48 h) was >1.00E−4 Molar. The “Percent Growth” value (HCC-2998; [7]) was 62%, the “Percent Growth” value (HCC-2998; [8]) was 69% and the “Percent Growth” value (HCC-2998; [9]) was 93%. The “Percent Growth” value (HCC-2998; [10]) was 96%, the “Percent Growth” value (HCC-2998; [11]) was 101% and the TGI (EKVX; 48 h) was >1.00E−4 Molar. The “Percent Growth” value (EKVX; [7]) was 42%, the “Percent Growth” value (EKVX; [8]) was 53% and the “Percent Growth” value (EKVX; [9]) was 91%. The “Percent Growth” value (EKVX; [10]) was 90%, the “Percent Growth” value (EKVX; [11]) was 92% and the TGI (NCI-H460; 48 h) was 2.50E−5 Molar. For the same compound, the “Percent Growth” value (NCI-H460; [7]) was −49%, the “Percent Growth” value (NCI-H460; [8]) was 32% and the “Percent Growth” value (NCI-H460; [9]) was 101%. The “Percent Growth” value (NCI-H460; [10]) was 102%, the “Percent Growth” value (NCI-H460; [11]) was 102% and the GI50 (HT29) was 4.2 µM. The CC50 (HT29; read-out: LC50) was > 100 µM, the GI50 (A549/ATCC) was 4.18 µM and the CC50 (A549/ATCC; read-out: LC50) was 79.1 µM.
